Measurements published in US20240279207A1, “SUBSTITUTED ACYL SULFONAMIDES FOR TREATING CANCER” (The Broad Institute, Inc., priority 2020, published 2024).
Where two headings read alike, the source gives them in different places.

Key:
[1] = biological target: T1, Recombinant human His-tagged Kat6a protein (amino acids 194-810) (Homo sapiens, UniProt Q92794); assay: Kat6a activity assay (TR-FRET, acetylation of Histone-H4-derived peptide); format: biochemical; settings: 60 mins at 22° C., 220 nM H4 peptide, 600 nM Acetyl Coenzyme A, read-out: KAT6A - DPF/HAT domain IC50 [mol/l] (arithmetic mean)
T1 construct: Kat6a protein (amino acids 194-810); His
Method: Kat6a inhibitory activities of the compounds described in the present invention were quantified using a Fluorescence Resonance Energy Transfer (TR-FRET) assay which measures acetylation of a synthetic, biotinylated Histone-H4-derived peptide by the enzyme.
In this case 50 nl DMSO were used instead of compounds. […] IC50 values were determined by regression analysis based on a 4 parameter equation (minimum, maximum, ICM, Hill; Y=Max+(Min−Max)/(1+(X/ICso) Hill) using the Screener Software (Genedata).

[2] = test system: ESR1 transcription in MVLN cells; assay: MVLN reporter assay: repression of ESR1 transcription (luciferase signal); format: cell-based; settings: Homo sapiens, luciferase signal after 24 h, read-out: MVLN reporter assay, IC50 [M] (arithmetic mean)
Excerpt: KAT6A controls transcription of the ESR1 gene in breast cancer cells. Compound treatment that interferes with this mechanism was quantified using MVLN cells. These cells constitutively express the ER and are stably transfected with the luciferase (LUC) reporter gene and the corresponding hormone responsive element derived from the 5′-flanking region of the Xenopus Vitellogenin A2 gene (Pons et al., 1990, Demirpense et al., 1993, Joyeux et al., 1993). The repressive effect on ERα transcription activity of a test chemical is directly related to the luciferase measured in the lysate of treated MVLN cells. […] Each sample was prepared as duplicate and rim wells were excluded. For luciferase signal determination 100 μl of a 1:1 mixture of Steadylite plus (Perkin Elmer; 6016759) and assay medium was added after 24 h for 15 minutes and measured in Victor X3 (Perkin Elmer). To exclude any effects caused by cell loss during the treatment, cell density was determined using Alamar Blue (Invitrogen; DAL1100). Prior to the luciferase measurement 10 μl Alamar Blue were added to each well and the plates were incubated for 2 h in the incubator. Then fluorescence was measured with Victor X3 (Perkin Elmer) at 530 nm/590 nm.

T1 sequence (Q92794 194-810): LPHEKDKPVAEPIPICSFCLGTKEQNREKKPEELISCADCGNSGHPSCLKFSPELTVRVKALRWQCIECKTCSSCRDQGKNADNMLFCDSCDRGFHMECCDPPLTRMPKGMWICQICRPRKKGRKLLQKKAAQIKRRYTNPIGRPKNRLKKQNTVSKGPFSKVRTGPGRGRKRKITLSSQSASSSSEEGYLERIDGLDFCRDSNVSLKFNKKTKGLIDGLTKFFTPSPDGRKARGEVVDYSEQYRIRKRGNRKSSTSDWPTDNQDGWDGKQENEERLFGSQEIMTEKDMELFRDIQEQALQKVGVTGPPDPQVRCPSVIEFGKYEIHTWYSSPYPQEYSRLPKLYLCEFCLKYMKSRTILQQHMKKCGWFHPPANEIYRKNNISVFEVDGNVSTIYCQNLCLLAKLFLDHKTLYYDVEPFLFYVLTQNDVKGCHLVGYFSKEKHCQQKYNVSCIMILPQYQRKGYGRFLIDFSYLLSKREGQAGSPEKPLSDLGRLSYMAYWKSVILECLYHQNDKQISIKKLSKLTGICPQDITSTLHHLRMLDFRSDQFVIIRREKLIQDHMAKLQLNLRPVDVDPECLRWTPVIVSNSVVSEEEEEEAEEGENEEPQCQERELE

Row | Structure (SMILES) | IC50 [1] | IC50 ([2]; MVLN, 24 h) | IC50 [2]
1 | Cc1cccc(C(C)C)c1S(=O)(=O)NC(=O)c1cc2c(F)cc(N3CCC3)cc2o1 [Example 53, 6-(Azetidin-1-yl)-4-fluoro-N-[2-methyl-6-(propan-2-yl)benzene-1-sulfonyl]-1-benzofuran-2-carboxamide] | 698 nM | 1.58e-06 M | 
2 | O=C(NS(=O)(=O)c1cccc2nccnc12)c1cc2c(F)cc(N3CCC3)cc2o1 [Example 56, 6-(Azetidin-1-yl)-4-fluoro-N-(quinoxaline-5-sulfonyl)-1-benzofuran-2-carboxamide] | 122 nM | 2.11e-06 M | 
3 | Cc1cccc(C2CCCC2)c1S(=O)(=O)NC(=O)c1cc2c(F)cc(N3CCC3)cc2o1 [Example 61, 6-(Azetidin-1-yl)-N-(2-cyclopentyl-6-methylbenzene-1-sulfonyl)-4-fluoro-1-benzofuran-2-carboxamide] | 399 nM | 5.6e-06 M | 
4 | COc1cccc2c(S(=O)(=O)NC(=O)c3cc4c(F)cc(N5CCC5)cc4o3)cccc12 [Example 65, 6-(Azetidin-1-yl)-4-fluoro-N-(5-methoxynaphthalene-1-sulfonyl)-1-benzofuran-2-carboxamide] | 57.1 nM | 8.32e-06 M | 
5 | CN(C)c1cccc2c(S(=O)(=O)NC(=O)c3cc4c(F)cc(N5CCC5)cc4o3)cccc12 [Example 66, 6-(Azetidin-1-yl)-N-[5-(dimethylamino)naphthalene-1-sulfonyl]-4-fluoro-1-benzofuran-2-carboxamide] | 135 nM | 1e-05 M | 
6 | COc1cccnc1S(=O)(=O)NC(=O)c1cc2c(F)cc(N3CCC3)cc2o1 [Example 67, 6-(Azetidin-1-yl)-4-fluoro-N-(3-methoxypyridine-2-sulfonyl)-1-benzofuran-2-carboxamide] | 345 nM | 1.1e-05 M | 
7 | N#CCCc1ccc(S(=O)(=O)NC(=O)c2cc3c(F)cc(N4CCC4)cc3o2)cc1 [Example 68, 6-(Azetidin-1-yl)-N-[4-(2-cyanoethyl)benzene-1-sulfonyl]-4-fluoro-1-benzofuran-2-carboxamide] | 652 nM | 1.26e-05 M | 
8 | O=C(NS(=O)(=O)c1ncccc1Br)c1cc2c(F)cc(N3CCC3)cc2o1 [Example 69, 6-(Azetidin-1-yl)-N-(3-bromopyridine-2-sulfonyl)-4-fluoro-1-benzofuran-2-carboxamide] | 325 nM | 1.56e-05 M | 
9 | Cc1cc(Nc2ccccc2S(=O)(=O)NC(=O)c2cc3c(F)cc(N4CCC4)cc3o2)n(-c2ccccc2)n1 [Example 70, 6-(Azetidin-1-yl)-4-fluoro-N-{2-[(3-methyl-1-phenyl-1H-pyrazol-5-yl)amino]benzene-1-sulfonyl}-1-benzofuran-2-carboxamide] | 494 nM | 1.58e-05 M | 
10 | CN(C)S(=O)(=O)c1ccc(Cl)c(S(=O)(=O)NC(=O)c2cc3c(F)cc(N4CCC4)cc3o2)c1 [Example 72, 6-(Azetidin-1-yl)-N-[2-chloro-5-(dimethylsulfamoyl)benzene-1-sulfonyl]-4-fluoro-1-benzofuran-2-carboxamide] | 159 nM | 1.89e-05 M | 
11 | O=C(NS(=O)(=O)c1ccccc1C(=O)N1CCOCC1)c1cc2c(F)cc(N3CCC3)cc2o1 [Example 73, 6-(Azetidin-1-yl)-4-fluoro-N-[2-(morpholine-4-carbonyl)benzene-1-sulfonyl]-1-benzofuran-2-carboxamide] | 105 nM | 2.56e-06 M | 
12 | COC(=O)/C=C/c1ccccc1S(=O)(=O)NC(=O)c1cc2c(F)cc(N3CCC3)cc2o1 [Example 74, Methyl (2E)-3-(2-{[6-(azetidin-1-yl)-4-fluoro-1-benzofuran-2-carbonyl]sulfamoyl}phenyl)prop-2-enoate] | 89.8 nM | 2.56e-06 M | 
13 | CCN(CC)C(=O)Oc1ccccc1S(=O)(=O)NC(=O)c1cc2c(F)cc(N3CCC3)cc2o1 [Example 76, 2-{[6-(Azetidin-1-yl)-4-fluoro-1-benzofuran-2-carbonyl]sulfamoyl}phenyl diethylcarbamate] | 111 nM |  | 2.82e-06 M
14 | CCS(=O)(=O)c1ccccc1S(=O)(=O)NC(=O)c1cc2c(F)cc(N3CCC3)cc2o1 [Example 77, 6-(Azetidin-1-yl)-N-[2-(ethanesulfonyl)benzene-1-sulfonyl]-4-fluoro-1-benzofuran-2-carboxamide] | 207 nM | 3.45e-06 M | 
15 | CCOc1cccc(OCC(F)F)c1S(=O)(=O)NC(=O)c1cc2c(F)cc(N3CCC3)cc2o1 [Example 81, 6-(Azetidin-1-yl)-N-[2-(2,2-difluoroethoxy)-6-ethoxybenzene-1-sulfonyl]-4-fluoro-1-benzofuran-2-carboxamide] | 18 nM | 1.57e-07 M | 
16 | CCCOc1cccc(OC(C)(C)C)c1S(=O)(=O)NC(=O)c1cc2c(F)cc(N3CCC3)cc2o1 [Example 83, 6-(Azetidin-1-yl)-N-(2-tert-butoxy-6-propoxybenzene-1-sulfonyl)-4-fluoro-1-benzofuran-2-carboxamide] | 26.7 nM | 2.85e-07 M | 

Now from value to molecule, other results behind:

Row | IC50 [1] | IC50 ([2]; MVLN, 24 h) | Structure (SMILES) | IC50 [2]
17 | 101 nM | 1.55e-06 M | O=C(NS(=O)(=O)c1ccccc1CCC(F)(F)F)c1cc2c(F)cc(N3CCC3)cc2o1 [Example 52, 6-(Azetidin-1-yl)-4-fluoro-N-[2-(3,3,3-trifluoropropyl)benzene-1-sulfonyl]-1-benzofuran-2-carboxamide] | 
18 | 135 nM | 1.72e-06 M | CCOCc1ccc(Cl)c(S(=O)(=O)NC(=O)c2cc3c(F)cc(N4CCC4)cc3o2)c1 [Example 54, 6-(Azetidin-1-yl)-N-[2-chloro-5-(ethoxymethyl)benzene-1-sulfonyl]-4-fluoro-1-benzofuran-2-carboxamide] | 
19 | 106 nM | 1.69e-06 M | O=C(NS(=O)(=O)c1ccccc1/C=C/C(F)(F)F)c1cc2c(F)cc(N3CCC3)cc2o1 [Example 55, 6-(Azetidin-1-yl)-4-fluoro-N-{2-[(1E)-3,3,3-trifluoroprop-1-en-1-yl]benzene-1-sulfonyl}-1-benzofuran-2-carboxamide] | 
20 | 120 nM | 2.5e-06 M | COC(=O)Cc1ccc2c(S(=O)(=O)NC(=O)c3cc4c(F)cc(N5CCC5)cc4o3)cccc2c1 [Example 57, Methyl (5-{[6-(azetidin-1-yl)-4-fluoro-1-benzofuran-2-carbonyl]sulfamoyl}naphthalen-2-yl)acetate] | 
21 | 315 nM | 3.87e-06 M | CCCc1cccc(C(F)(F)F)c1S(=O)(=O)NC(=O)c1cc2c(F)cc(N3CCC3)cc2o1 [Example 58, 6-(Azetidin-1-yl)-4-fluoro-N-[2-propyl-6-(trifluoromethyl)benzene-1-sulfonyl]-1-benzofuran-2-carboxamide] | 
22 | 208 nM | 4.29e-06 M | COCCOc1ccc(Cl)c(S(=O)(=O)NC(=O)c2cc3c(F)cc(N4CCC4)cc3o2)c1 [Example 59, 6-(Azetidin-1-yl)-N-[2-chloro-5-(2-methoxyethoxy)benzene-1-sulfonyl]-4-fluoro-1-benzofuran-2-carboxamide] | 
23 | 476 nM | 5.29e-06 M | Cc1cnc(Cl)c(S(=O)(=O)NC(=O)c2cc3c(F)cc(N4CCC4)cc3o2)c1 [Example 60, 6-(Azetidin-1-yl)-N-(2-chloro-5-methylpyridine-3-sulfonyl)-4-fluoro-1-benzofuran-2-carboxamide] | 
24 | 131 nM | 6.48e-06 M | O=C(NS(=O)(=O)c1cc(CO)ccc1OC(F)(F)F)c1cc2c(F)cc(N3CCC3)cc2o1 [Example 63, 6-(Azetidin-1-yl)-4-fluoro-N-[5-(hydroxymethyl)-2-(trifluoromethoxy)benzene-1-sulfonyl]-1-benzofuran-2-carboxamide] | 
25 | 85.1 nM | 8e-06 M | Cc1cccc(O)c1S(=O)(=O)NC(=O)c1cc2c(F)cc(N3CCC3)cc2o1 [Example 64, 6-(Azetidin-1-yl)-4-fluoro-N-(2-hydroxy-6-methylbenzene-1-sulfonyl)-1-benzofuran-2-carboxamide] | 
26 | 84.3 nM | 1.72e-05 M | O=C(NS(=O)(=O)c1cc(O)cc2ccccc12)c1cc2c(F)cc(N3CCC3)cc2o1 [Example 71, 6-(Azetidin-1-yl)-4-fluoro-N-(3-hydroxynaphthalene-1-sulfonyl)-1-benzofuran-2-carboxamide] | 
27 | 337 nM | 2.76e-06 M | CCOc1cccc(S(=O)(=O)NC(=O)c2cc3c(F)cc(N4CCC4)cc3o2)c1 [Example 75, 6-(Azetidin-1-yl)-N-(3-ethoxybenzene-1-sulfonyl)-4-fluoro-1-benzofuran-2-carboxamide] | 
28 | 19.3 nM | 3.66e-07 M | O=C(NS(=O)(=O)c1cc(Br)ccc1OC(F)(F)F)c1cc2c(F)cc(N3CCC3)cc2o1 [Example 82, 6-(Azetidin-1-yl)-N-[5-bromo-2-(trifluoromethoxy)benzene-1-sulfonyl]-4-fluoro-1-benzofuran-2-carboxamide] | 
